From the kinase profiling compilation of Christmann-Franck et al. (2016)

Experiments:
Experiment in all cases: radiometric filter-binding kinase assay
[1] = system: AKT2 (human), P31751 [S474D]; conditions: compound 0.1 µM
AURKB (human) = AURKB (human) (UniProt Q96GD4); conditions: compound 0.1 µM
CAMKK2 (human) = CAMKK2 (human) (UniProt Q96RR4); conditions: compound 0.1 µM
CHEK1 (human) = CHEK1 (human) (UniProt O14757); conditions: compound 0.1 µM
CHEK2 (human) = CHEK2 (human) (UniProt O96017); conditions: compound 0.1 µM
CHEK2 (human), sequence (O96017 whole entry, looked up): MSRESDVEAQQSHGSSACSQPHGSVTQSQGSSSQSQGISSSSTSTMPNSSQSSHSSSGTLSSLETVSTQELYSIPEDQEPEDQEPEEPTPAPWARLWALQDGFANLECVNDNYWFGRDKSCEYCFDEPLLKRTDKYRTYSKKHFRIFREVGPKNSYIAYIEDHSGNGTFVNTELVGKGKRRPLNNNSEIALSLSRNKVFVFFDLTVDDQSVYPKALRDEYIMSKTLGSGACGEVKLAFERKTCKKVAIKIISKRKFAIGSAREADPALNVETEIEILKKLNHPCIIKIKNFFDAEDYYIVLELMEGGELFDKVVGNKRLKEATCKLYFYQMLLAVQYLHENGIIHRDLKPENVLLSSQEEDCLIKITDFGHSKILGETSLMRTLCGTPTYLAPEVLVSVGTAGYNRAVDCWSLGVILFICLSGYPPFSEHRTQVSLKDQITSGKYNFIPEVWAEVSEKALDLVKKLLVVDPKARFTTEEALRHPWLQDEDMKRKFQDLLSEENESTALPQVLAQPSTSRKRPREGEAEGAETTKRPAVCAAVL

EPHB4 (human) = EPHB4 (human) (UniProt P54760); conditions: compound 0.1 µM
IGF1R (human) = IGF1R (human) (UniProt P08069); conditions: compound 0.1 µM
IKBKB (human) = IKBKB (human) (UniProt O14920); conditions: compound 0.1 µM
IKBKB (human), sequence (O14920 whole entry, looked up): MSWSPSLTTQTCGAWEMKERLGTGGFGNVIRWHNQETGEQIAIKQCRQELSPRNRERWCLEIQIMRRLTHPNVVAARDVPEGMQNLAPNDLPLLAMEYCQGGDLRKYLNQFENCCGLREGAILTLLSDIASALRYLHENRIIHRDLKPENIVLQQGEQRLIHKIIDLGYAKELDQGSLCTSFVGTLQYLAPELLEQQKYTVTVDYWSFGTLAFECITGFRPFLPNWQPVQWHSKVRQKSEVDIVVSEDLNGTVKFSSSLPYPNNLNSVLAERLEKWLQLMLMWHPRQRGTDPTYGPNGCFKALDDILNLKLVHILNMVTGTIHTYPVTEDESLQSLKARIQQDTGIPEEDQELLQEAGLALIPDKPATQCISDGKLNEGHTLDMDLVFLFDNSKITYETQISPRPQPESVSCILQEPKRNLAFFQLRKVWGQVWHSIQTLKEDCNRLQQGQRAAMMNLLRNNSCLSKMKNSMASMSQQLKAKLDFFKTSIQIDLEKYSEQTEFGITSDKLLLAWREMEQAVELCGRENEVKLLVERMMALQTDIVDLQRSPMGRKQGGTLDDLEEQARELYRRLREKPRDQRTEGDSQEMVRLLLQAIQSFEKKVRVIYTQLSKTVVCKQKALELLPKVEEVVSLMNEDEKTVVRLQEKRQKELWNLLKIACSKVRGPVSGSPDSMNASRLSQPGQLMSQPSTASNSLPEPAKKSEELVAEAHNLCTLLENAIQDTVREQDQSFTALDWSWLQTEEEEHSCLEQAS

MAP2K1 (human) = MAP2K1 (human) (UniProt Q02750); conditions: compound 0.1 µM
MAP2K1 (human), sequence (Q02750 whole entry, looked up): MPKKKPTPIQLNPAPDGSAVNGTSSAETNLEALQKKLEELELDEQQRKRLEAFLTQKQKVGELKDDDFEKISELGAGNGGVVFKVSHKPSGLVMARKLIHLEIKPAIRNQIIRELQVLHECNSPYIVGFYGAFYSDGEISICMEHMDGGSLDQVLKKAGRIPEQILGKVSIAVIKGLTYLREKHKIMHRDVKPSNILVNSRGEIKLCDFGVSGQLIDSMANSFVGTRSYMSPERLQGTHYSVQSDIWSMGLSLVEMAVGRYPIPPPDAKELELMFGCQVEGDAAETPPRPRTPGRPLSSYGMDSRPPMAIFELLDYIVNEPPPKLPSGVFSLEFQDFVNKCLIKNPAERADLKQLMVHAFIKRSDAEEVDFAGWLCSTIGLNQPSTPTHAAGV

MAP3K1 (human) = MAP3K1 (human) (UniProt Q13233); conditions: compound 0.1 µM
MAP3K5 (human) = MAP3K5 (human) (UniProt Q99683); conditions: compound 0.1 µM
MAPK1 (human) = MAPK1 (human) (UniProt P28482); conditions: compound 0.1 µM
MAPK10 (human) = MAPK10 (human) (UniProt P53779); conditions: compound 0.1 µM
MAPK10 (human), sequence (P53779 whole entry, looked up): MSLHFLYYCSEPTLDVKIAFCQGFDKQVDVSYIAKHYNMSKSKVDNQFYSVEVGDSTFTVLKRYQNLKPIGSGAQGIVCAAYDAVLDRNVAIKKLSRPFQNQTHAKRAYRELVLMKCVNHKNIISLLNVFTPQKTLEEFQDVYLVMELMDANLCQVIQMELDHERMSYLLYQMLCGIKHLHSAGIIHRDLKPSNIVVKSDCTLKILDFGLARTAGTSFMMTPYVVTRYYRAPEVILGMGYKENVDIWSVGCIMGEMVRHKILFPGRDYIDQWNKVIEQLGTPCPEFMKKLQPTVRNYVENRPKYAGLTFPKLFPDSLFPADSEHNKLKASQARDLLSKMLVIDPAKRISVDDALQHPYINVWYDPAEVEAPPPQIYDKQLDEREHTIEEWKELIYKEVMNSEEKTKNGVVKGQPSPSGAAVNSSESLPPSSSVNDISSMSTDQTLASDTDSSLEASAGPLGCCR

MAPK15 (human) = MAPK15 (human) (UniProt Q8TD08); conditions: compound 0.1 µM
MAPK3 (human) = MAPK3 (human) (UniProt P27361); conditions: compound 0.1 µM
MAPK9 (human) = MAPK9 (human) (UniProt P45984); conditions: compound 0.1 µM
MARK2 (human) = MARK2 (human) (UniProt Q7KZI7); conditions: compound 0.1 µM
MINK1 (human) = MINK1 (human) (UniProt Q8N4C8); conditions: compound 0.1 µM
MINK1 (human), sequence (Q8N4C8 whole entry, looked up): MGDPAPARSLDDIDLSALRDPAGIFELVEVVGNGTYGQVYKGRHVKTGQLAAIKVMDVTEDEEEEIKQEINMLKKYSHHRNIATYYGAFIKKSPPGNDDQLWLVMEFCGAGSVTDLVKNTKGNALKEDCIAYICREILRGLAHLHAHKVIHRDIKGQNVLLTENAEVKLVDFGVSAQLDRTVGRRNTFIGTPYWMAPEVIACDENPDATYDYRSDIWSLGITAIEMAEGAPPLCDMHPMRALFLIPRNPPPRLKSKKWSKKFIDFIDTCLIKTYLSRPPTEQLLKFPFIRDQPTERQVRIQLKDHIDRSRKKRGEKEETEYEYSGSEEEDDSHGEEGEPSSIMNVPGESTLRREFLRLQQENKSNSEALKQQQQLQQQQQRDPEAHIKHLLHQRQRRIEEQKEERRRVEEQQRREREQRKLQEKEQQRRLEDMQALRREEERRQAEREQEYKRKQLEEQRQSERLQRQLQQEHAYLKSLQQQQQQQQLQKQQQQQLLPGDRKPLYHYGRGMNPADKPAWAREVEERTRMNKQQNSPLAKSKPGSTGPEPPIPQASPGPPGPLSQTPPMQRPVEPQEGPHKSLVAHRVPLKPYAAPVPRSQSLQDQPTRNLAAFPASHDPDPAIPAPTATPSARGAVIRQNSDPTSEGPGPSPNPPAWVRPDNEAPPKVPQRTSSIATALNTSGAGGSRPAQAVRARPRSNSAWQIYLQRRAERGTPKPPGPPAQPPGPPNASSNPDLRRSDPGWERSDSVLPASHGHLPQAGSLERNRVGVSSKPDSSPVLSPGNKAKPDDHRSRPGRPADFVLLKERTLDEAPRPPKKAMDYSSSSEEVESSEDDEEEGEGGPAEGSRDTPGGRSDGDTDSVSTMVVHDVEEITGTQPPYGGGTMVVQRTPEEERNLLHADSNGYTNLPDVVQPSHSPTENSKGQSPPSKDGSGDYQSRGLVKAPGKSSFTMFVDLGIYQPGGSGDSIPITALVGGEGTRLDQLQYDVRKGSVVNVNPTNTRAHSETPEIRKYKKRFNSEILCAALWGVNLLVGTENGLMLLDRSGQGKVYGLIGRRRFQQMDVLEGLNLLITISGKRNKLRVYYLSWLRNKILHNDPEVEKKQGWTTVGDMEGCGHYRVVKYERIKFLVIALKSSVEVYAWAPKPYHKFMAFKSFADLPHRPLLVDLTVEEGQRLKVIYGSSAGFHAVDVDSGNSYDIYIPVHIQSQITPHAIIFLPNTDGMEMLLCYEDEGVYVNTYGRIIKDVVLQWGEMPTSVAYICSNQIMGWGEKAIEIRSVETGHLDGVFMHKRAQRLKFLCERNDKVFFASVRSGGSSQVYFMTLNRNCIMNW

MKNK1 (human) = MKNK1 (human) (UniProt Q9BUB5); conditions: compound 0.1 µM
MKNK1 (human), sequence (Q9BUB5 whole entry, looked up): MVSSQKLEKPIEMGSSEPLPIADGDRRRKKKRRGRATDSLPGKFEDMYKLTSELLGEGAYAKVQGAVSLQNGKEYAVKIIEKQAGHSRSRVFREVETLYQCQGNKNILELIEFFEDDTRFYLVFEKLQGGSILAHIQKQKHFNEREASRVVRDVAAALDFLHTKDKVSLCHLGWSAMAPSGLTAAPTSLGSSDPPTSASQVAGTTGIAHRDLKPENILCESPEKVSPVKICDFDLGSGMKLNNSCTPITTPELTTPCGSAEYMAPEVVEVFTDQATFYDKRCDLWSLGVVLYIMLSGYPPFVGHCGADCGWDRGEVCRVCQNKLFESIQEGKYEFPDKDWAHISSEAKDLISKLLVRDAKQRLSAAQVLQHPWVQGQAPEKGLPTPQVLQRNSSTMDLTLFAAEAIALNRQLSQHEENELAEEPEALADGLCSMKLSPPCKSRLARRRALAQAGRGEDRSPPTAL

MKNK2 (human) = MKNK2 (human) (UniProt Q9HBH9); conditions: compound 0.1 µM
NEK2 (human) = NEK2 (human) (UniProt P51955); conditions: compound 0.1 µM
NTRK1 (human) = NTRK1 (human) (UniProt P04629); conditions: compound 0.1 µM
PHKG1 (human) = PHKG1 (human) (UniProt Q16816); conditions: compound 0.1 µM
PIM2 (human) = PIM2 (human) (UniProt Q9P1W9); conditions: compound 0.1 µM
PKN2 (human) = PKN2 (human) (UniProt Q16513); conditions: compound 0.1 µM
PRKAA1 or PRKAA2 (rat) = conditions: compound 0.1 µM; accession and sequence are those of the human protein
PRKACA (human) = PRKACA (human) (UniProt P17612); conditions: compound 0.1 µM
PRKCA (human) = PRKCA (human) (UniProt P17252); conditions: compound 0.1 µM
[2] = target: STK11 CAB39 STRADA (human) (UniProt Q9Y376+Q7RTN6+Q15831); conditions: compound 0.1 µM
STK3 (human) = STK3 (human) (UniProt Q13188); conditions: compound 0.1 µM
YES1 (human) = YES1 (human) (UniProt P07947); conditions: compound 0.1 µM

CAMKK2 (human), sequence (Q96RR4 whole entry, looked up): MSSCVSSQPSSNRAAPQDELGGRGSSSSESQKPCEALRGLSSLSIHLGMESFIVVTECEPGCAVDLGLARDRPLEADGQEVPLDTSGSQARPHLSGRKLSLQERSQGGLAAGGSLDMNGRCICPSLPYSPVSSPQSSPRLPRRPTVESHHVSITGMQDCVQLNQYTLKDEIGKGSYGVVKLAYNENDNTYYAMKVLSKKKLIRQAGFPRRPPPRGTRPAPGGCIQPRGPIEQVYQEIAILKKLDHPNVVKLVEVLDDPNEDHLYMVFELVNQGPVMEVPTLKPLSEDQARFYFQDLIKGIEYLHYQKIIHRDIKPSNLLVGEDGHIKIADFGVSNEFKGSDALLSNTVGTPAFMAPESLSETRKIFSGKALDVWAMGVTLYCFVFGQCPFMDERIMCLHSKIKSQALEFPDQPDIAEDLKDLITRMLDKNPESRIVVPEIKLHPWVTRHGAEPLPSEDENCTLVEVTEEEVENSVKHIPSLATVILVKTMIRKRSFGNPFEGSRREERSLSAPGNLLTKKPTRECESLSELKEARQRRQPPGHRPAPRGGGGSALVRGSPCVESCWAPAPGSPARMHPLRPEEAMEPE
CHEK1 (human), sequence (O14757 whole entry, looked up): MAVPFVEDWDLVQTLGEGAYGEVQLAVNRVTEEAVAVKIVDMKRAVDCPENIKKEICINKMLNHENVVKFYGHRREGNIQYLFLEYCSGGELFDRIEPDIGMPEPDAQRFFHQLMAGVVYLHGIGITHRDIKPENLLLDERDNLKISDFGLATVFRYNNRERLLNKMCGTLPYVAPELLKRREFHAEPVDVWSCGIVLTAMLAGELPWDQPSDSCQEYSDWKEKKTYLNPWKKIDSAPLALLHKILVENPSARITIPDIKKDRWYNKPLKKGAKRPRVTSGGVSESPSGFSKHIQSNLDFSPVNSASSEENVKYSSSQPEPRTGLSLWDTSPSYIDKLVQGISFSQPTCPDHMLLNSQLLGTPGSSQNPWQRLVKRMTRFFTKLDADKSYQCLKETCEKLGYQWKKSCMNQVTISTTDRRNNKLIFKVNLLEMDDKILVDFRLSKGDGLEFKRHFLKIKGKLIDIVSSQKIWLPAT

## CN1CCN(CCOc2cc(OC3CCOCC3)c3c(Nc4c(Cl)ccc5c4OCO5)ncnc3c2)CC1
[1]
  residual activity: 86%
AURKB (human)
  residual activity: 82%
CAMKK2 (human)
  residual activity: 95%
CHEK1 (human)
  residual activity: 106%
CHEK2 (human)
  residual activity: 112%
EPHB4 (human)
  residual activity: 76%
IGF1R (human)
  residual activity: 97%
IKBKB (human)
  residual activity: 119%
MAP2K1 (human)
  residual activity: 97%
MAP3K1 (human)
  residual activity: 84%
MAP3K5 (human)
  residual activity: 100%
MAPK1 (human)
  residual activity: 100%
MAPK10 (human)
  residual activity: 116%
MAPK15 (human)
  residual activity: 134%
MAPK3 (human)
  residual activity: 93%
MAPK9 (human)
  residual activity: 88%
MARK2 (human)
  residual activity: 90%
MINK1 (human)
  residual activity: 90%
MKNK1 (human)
  residual activity: 107%
MKNK2 (human)
  residual activity: 110%
NEK2 (human)
  residual activity: 94%
NTRK1 (human)
  residual activity: 93%
PHKG1 (human)
  residual activity: 106%
PIM2 (human)
  residual activity: 105%
PKN2 (human)
  residual activity: 103%
PRKAA1 or PRKAA2 (rat)
  residual activity: 99%
PRKACA (human)
  residual activity: 105%
PRKCA (human)
  residual activity: 100%
[2]
  residual activity: 112%
STK3 (human)
  residual activity: 102%
YES1 (human)
  residual activity: 4%
